# Measurements published in ChEMBL document CHEMBL5715949, “Discovery of a selective irreversible BMX inhibitor for prostate cancer” (ACS Chem Biol, 2013).
# The source made the active and inactive calls. The calls are words filed in the database; no cut-off is given here.
# Experiments:
# [1] = Inhibition of PI3K/AKT/mTOR signalling pathway in human RV-1 cells assessed as decrease in S6K phosphorylation at T389 residue at 2.5 uM incubated for 5 days in presence of MK2206 by immunoblot analysis; type: cell-based; conditions: time 5.0 day
# [2] = target: cAMP-dependent protein kinase catalytic subunit beta (Homo sapiens) (UniProt P22694); test: Inhibition of PKAC-beta (unknown origin) assessed as remaining activity at 1 uM by Kinome scan method relative to control
# RV-1 [3] = test: Antiproliferative activity against human RV-1 cells assessed as reduction in cell viability at 500 to 2500 nM incubated for 5 days in presence of lapatinib by CellTiter-Glo assay; type: functional, cell-based; conditions: dose 500-2500 nM, time 5.0 day
# RV-1 [4] = test: Antiproliferative activity against human RV-1 cells assessed as reduction in cell viability at 500 to 2500 nM incubated for 5 days in presence of erlotinib by CellTiter-Glo assay; type: functional, cell-based; conditions: dose 500-2500 nM, time 5.0 day
# [5] = target: Mitogen-activated protein kinase kinase kinase 12 (Homo sapiens) (UniProt Q12852); test: Inhibition of DLK (unknown origin) assessed as remaining activity at 1 uM by Kinome scan method relative to control
# Mitogen-activated protein kinase kinase kinase 12 (Homo sapiens), sequence (Q12852 whole entry): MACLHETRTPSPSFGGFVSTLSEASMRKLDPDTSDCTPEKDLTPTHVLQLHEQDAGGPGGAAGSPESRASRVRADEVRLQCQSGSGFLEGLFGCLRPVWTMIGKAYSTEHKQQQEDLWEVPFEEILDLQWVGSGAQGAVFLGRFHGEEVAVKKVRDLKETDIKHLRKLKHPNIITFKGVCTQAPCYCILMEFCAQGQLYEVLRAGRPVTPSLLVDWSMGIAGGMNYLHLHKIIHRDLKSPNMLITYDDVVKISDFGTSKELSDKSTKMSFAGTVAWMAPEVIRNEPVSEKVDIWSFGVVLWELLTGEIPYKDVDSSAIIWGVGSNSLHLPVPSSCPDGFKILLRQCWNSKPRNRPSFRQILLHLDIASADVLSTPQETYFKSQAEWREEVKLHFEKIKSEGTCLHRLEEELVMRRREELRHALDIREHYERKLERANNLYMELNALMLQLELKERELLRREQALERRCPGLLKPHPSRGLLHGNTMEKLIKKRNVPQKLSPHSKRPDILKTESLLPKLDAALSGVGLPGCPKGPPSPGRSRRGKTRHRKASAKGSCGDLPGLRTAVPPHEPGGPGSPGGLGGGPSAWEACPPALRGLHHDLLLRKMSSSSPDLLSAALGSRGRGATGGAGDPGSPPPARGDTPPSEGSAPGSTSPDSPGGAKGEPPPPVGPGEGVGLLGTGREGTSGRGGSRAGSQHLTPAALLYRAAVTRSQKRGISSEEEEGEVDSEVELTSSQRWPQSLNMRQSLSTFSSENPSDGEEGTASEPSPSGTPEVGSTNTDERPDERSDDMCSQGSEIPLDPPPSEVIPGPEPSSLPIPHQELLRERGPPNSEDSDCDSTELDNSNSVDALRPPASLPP
# RV-1 [6] = test: Down regulation of BMX protein expression in human RV-1 cells expressing wild type BMX at 5 uM incubated for 72 hrs by western blot analysis; type: functional, cell-based
# [7] = target: Myotonin-protein kinase (Homo sapiens) (UniProt Q09013); test: Inhibition of DMPK (unknown origin) assessed as remaining activity at 1 uM by Kinome scan method relative to control
# Myotonin-protein kinase (Homo sapiens), sequence (Q09013 whole entry): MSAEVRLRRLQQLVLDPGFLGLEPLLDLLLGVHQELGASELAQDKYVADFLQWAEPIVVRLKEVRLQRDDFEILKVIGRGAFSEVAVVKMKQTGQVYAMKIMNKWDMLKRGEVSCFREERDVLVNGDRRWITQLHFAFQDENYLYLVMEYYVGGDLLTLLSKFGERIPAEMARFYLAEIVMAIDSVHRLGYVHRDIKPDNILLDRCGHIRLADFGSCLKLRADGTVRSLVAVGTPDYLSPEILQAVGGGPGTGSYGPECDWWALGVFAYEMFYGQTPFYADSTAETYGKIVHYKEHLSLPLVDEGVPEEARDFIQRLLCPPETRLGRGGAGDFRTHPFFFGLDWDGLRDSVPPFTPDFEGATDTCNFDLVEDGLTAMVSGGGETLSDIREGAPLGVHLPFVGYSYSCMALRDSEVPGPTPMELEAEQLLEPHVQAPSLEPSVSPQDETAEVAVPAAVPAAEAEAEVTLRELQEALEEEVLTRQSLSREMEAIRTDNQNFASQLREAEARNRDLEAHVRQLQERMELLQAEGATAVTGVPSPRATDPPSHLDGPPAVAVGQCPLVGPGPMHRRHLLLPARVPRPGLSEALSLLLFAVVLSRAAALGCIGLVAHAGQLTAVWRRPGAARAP
# [8] = target: Citron Rho-interacting kinase (Homo sapiens) (UniProt O14578); test: Inhibition of CIT (unknown origin) assessed as remaining activity at 1 uM by Kinome scan method relative to control
# Citron Rho-interacting kinase (Homo sapiens), sequence (O14578 whole entry): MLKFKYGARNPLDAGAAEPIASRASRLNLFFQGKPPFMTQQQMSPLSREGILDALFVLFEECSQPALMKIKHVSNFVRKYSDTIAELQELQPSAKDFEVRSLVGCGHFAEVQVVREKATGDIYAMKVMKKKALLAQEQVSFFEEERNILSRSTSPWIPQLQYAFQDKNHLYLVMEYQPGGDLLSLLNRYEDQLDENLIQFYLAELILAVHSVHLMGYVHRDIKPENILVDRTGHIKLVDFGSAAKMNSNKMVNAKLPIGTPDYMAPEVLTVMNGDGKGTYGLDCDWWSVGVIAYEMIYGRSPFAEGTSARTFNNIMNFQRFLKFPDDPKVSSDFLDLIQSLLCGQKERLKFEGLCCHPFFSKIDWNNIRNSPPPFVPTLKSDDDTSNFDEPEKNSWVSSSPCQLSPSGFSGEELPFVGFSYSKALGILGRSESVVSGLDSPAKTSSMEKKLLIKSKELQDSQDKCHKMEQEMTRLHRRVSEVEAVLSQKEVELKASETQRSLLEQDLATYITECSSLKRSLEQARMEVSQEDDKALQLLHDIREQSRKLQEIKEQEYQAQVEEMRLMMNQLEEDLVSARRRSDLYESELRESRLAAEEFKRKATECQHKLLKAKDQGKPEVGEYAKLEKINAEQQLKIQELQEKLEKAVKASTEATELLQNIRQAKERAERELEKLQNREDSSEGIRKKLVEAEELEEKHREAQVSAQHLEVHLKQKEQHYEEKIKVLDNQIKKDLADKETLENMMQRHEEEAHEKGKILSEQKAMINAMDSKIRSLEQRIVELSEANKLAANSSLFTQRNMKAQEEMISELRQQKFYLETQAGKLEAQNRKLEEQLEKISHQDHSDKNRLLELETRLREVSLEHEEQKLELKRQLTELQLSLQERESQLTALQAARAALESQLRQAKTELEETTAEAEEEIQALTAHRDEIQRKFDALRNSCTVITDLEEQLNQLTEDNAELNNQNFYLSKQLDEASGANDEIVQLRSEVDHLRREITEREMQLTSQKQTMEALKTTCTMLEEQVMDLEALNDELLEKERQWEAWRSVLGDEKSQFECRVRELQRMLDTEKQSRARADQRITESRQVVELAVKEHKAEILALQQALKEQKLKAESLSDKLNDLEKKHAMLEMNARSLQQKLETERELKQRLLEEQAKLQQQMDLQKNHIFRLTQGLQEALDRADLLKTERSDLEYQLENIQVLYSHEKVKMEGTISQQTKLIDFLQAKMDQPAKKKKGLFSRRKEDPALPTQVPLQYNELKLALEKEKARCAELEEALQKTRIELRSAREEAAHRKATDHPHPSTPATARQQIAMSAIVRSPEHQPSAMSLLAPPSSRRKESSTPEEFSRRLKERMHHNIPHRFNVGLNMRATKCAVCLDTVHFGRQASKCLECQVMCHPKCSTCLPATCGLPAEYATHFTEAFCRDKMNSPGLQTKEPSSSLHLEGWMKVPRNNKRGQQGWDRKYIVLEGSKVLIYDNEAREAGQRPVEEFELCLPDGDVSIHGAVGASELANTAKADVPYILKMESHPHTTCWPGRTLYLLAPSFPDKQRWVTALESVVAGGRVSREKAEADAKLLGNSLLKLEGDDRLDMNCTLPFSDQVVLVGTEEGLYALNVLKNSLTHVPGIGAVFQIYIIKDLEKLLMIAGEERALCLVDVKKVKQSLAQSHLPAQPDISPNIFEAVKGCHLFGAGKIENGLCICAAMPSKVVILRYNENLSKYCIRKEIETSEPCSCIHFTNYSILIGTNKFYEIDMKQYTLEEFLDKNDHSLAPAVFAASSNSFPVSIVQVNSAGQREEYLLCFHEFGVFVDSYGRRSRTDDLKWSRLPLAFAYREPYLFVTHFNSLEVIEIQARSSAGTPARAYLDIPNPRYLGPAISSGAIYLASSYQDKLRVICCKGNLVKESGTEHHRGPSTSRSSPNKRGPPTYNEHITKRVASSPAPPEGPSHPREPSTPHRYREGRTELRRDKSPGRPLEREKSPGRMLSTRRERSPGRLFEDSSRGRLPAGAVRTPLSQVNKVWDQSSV
# [9] = target: 5'-AMP-activated protein kinase catalytic subunit alpha-2 (Homo sapiens) (UniProt P54646); test: Inhibition of AMPK-alpha2 (unknown origin) assessed as remaining activity at 1 uM by Kinome scan method relative to control
# 5'-AMP-activated protein kinase catalytic subunit alpha-2 (Homo sapiens), sequence (P54646 whole entry, looked up): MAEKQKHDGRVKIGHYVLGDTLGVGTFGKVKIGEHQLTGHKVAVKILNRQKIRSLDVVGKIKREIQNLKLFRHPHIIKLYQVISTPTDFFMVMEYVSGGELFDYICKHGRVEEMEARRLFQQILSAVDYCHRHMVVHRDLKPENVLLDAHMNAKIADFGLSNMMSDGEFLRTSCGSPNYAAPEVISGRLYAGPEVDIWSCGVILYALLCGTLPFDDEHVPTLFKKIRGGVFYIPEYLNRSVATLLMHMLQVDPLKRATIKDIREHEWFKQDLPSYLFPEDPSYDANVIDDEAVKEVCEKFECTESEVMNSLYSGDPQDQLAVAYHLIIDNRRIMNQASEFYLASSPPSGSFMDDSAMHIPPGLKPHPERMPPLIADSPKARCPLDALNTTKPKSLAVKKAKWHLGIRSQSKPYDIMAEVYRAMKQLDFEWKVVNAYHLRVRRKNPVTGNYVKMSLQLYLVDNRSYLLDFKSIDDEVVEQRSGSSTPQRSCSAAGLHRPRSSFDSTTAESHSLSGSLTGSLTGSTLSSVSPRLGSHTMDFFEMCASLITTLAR
# [10] = tested on: Fibroblast growth factor receptor 3 (Homo sapiens), P22607 [G697C]; test: Inhibition of FGFR3 G697C mutant (unknown origin) assessed as remaining activity at 1 uM by Kinome scan method relative to control
# Fibroblast growth factor receptor 3 (Homo sapiens), P22607 [G697C], sequence (P22607 whole entry G697C): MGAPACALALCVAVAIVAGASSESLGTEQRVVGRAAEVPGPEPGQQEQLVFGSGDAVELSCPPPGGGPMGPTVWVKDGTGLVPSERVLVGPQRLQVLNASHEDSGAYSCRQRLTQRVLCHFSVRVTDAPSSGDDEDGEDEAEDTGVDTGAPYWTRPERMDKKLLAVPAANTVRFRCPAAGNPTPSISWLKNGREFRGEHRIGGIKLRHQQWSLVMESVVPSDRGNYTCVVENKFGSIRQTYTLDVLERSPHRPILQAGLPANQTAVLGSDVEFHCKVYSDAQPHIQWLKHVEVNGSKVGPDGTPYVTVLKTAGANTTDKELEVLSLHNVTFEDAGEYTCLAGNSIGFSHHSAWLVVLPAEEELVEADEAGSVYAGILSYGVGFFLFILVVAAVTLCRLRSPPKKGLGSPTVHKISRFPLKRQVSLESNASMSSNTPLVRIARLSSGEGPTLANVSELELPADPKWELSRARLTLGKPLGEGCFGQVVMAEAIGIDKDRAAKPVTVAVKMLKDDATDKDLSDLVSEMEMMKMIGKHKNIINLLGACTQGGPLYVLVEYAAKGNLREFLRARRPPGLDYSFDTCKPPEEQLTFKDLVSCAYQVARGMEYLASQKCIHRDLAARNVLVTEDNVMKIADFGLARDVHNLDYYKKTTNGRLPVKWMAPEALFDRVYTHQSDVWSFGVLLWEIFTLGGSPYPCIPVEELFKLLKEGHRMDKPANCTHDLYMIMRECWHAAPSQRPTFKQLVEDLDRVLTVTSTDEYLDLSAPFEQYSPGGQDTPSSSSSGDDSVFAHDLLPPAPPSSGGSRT
# RV-1 [11] = test: Antiproliferative activity against human RV-1 cells assessed as reduction in cell viability at 500 to 2500 nM incubated for 5 days in presence of MK2206 by CellTiter-Glo assay; type: functional, cell-based; conditions: dose 500-2500 nM, time 5.0 day
# [12] = target: Cyclin-dependent kinase 8 (Homo sapiens) (UniProt P49336); test: Inhibition of CDK8 (unknown origin) assessed as remaining activity at 1 uM by Kinome scan method relative to control
# [13] = Down regulation of BMX protein expression in human RV-1 cells expressing wild type BMX assessed protein expression level at 2.5 uM pre incubated for 4 hrs followed by compound wash out and additon of CHX and measured after 24 hrs by immunoblot analysis (reference value: 0.98 to 1.01); type: functional
smiles,measurement,setting,value
C=CC(=O)Nc1cc(-n2c(=O)ccc3cnc4ccc(-c5ccc(NS(C)(=O)=O)cc5)cc4c32)ccc1C,inhibition,[1],Active
same,Activity,[2],79%
same,Activity,RV-1 [3],Active
same,Activity,RV-1 [4],Active
same,Activity,[5],70%
same,Activity,RV-1 [6],Active
same,Activity,[7],91%
same,Activity,[8],83%
same,Activity,[9],92%
same,Activity,[10],26%
same,Activity,RV-1 [11],Active
same,Activity,[12],76%
same,Activity,[13],0.32
